Measured values taken from PubChem BioAssay AID1963438 (Molecular Pharmacology Branch, DTP, NCI, 2024).

Test system: NCI-H510 multicellular tumor spheroid growth, % test/control
Assay: Anticancer human tumor NCI-H510 cell line growth inhibition [Asc];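 further: spheroids exposed to agents for 7 days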;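 on viability, T/C: 100% = DMSO vehicle control wells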
Settings: for IC50: curve of first compound; for viability, T/C: stronger effect = lower value
In short: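 Tumor cells were grown as complex spheroids with human endothelial cells (HUVEC) and human mesenchymal stem cells as stroma. Agents were tested alone and in combination, in half-log steps down from the clinical Cmax, or from 10 microM where Cmax was unknown.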

[1] = second compound 0.1 µM, first compound 0.0316 µM
[2] = second compound 0.1 µM, first compound 0.1 µM
[3] = second compound 0.1 µM, first compound 0.316 µM
[4] = second compound 0.1 µM, first compound 1 µM
[5] = second compound 0.1 µM, first compound 3.16 µM
[6] = second compound 0.1 µM, first compound 10 µM
[7] = second compound 0.316 µM, first compound 0.0316 µM
[8] = second compound 0.316 µM, first compound 0.1 µM
[9] = second compound 0.316 µM, first compound 0.316 µM
[10] = second compound 0.316 µM, first compound 1 µM
[11] = second compound 0.316 µM, first compound 3.16 µM
[12] = second compound 0.316 µM, first compound 10 µM
[13] = second compound 1 µM, first compound 0.0316 µM
[14] = second compound 1 µM, first compound 0.1 µM
[15] = second compound 1 µM, first compound 0.316 µM
[16] = second compound 1 µM, first compound 1 µM
[17] = second compound 1 µM, first compound 3.16 µM
[18] = second compound 1 µM, first compound 10 µM
[19] = second compound 3.16 µM, first compound 0.0316 µM
[20] = second compound 3.16 µM, first compound 0.1 µM
[21] = second compound 3.16 µM, first compound 0.316 µM
[22] = second compound 3.16 µM, first compound 1 µM
[23] = second compound 3.16 µM, first compound 3.16 µM
[24] = second compound 3.16 µM, first compound 10 µM
[25] = second compound 10 µM, first compound 0.0316 µM
[26] = second compound 10 µM, first compound 0.1 µM
[27] = second compound 10 µM, first compound 0.316 µM
[28] = second compound 10 µM, first compound 1 µM
[29] = second compound 10 µM, first compound 3.16 µM
[30] = second compound 10 µM, first compound 10 µM

C#Cc1c(F)ccc2cc(O)cc(-c3ncc4c(N5CC6CCC(C5)N6)nc(OCC56CCCN5CC(F)C6)nc4c3F)c12 (stereo not given) + Cc1c(S(C)(=O)=O)c(-c2cc(F)cc(N3CCN(c4ccc(NS(=O)(=O)c5ccc(NC(CCN6CCC(C(=O)OCCCP(=O)(O)O)CC6)CSc6ccccc6)c(S(=O)(=O)C(F)(F)F)c5)cc4)CC3)c2)c(-c2ccc(Cl)cc2)n1C(C)C gave an IC50 (second compound 0.1 µM) of over 10000 nM, an IC50 (second compound 0.316 µM) of over 10000 nM and an IC50 (second compound 1 µM) of over 10000 nM. It also gave an IC50 (second compound 3.16 µM) of over 10000 nM, an IC50 (second compound 10 µM) of 6600 nM and a viability, T/C [1] of 119%. The viability, T/C [2] was 121%, the viability, T/C [3] was 103% and the viability, T/C [4] was 81.1%. It also gave a viability, T/C [5] of 93.4%, a viability, T/C [6] of 109% and a viability, T/C [7] of 112%. It also gave a viability, T/C [8] of 104%, a viability, T/C [9] of 105% and a viability, T/C [10] of 91.7%. The viability, T/C [11] was 89.9%, the viability, T/C [12] was 73% and the viability, T/C [13] was 105%. The viability, T/C [14] was 121%, the viability, T/C [15] was 119% and the viability, T/C [16] was 109%. It also gave a viability, T/C [17] of 108%, a viability, T/C [18] of 73% and a viability, T/C [19] of 108%. It also gave a viability, T/C [20] of 101%, a viability, T/C [21] of 110% and a viability, T/C [22] of 115%. It also gave a viability, T/C [23] of 109%, a viability, T/C [24] of 77% and a viability, T/C [25] of 102%. The viability, T/C [26] was 89.3%, the viability, T/C [27] was 113% and the viability, T/C [28] was 70.3%. The viability, T/C [29] was 74.3% and the viability, T/C [30] was 38.5%.
C=C(F)C(=O)N1CCN(c2nc(OCC3CCCN3C)nc3c2CCN(c2cccc4cccc(Cl)c24)C3)CC1CC#N (stereo not given) + Cc1c(S(C)(=O)=O)c(-c2cc(F)cc(N3CCN(c4ccc(NS(=O)(=O)c5ccc(NC(CCN6CCC(C(=O)OCCCP(=O)(O)O)CC6)CSc6ccccc6)c(S(=O)(=O)C(F)(F)F)c5)cc4)CC3)c2)c(-c2ccc(Cl)cc2)n1C(C)C was tested, and the IC50 (second compound 0.1 µM) was 693 nM, the IC50 (second compound 0.316 µM) was 905 nM and the IC50 (second compound 1 µM) was 761 nM. The IC50 (second compound 3.16 µM) was 961 nM, the IC50 (second compound 10 µM) was 546 nM and the viability, T/C [1] was 103%. The viability, T/C [2] was 85.7%, the viability, T/C [3] was 86% and the viability, T/C [4] was 33.7%. For the same molecule, the viability, T/C [5] was 0.61%, the viability, T/C [6] was 0.12% and the viability, T/C [7] was 105%. The viability, T/C [8] was 95%, the viability, T/C [9] was 86.2% and the viability, T/C [10] was 48.9%. The viability, T/C [11] was 0.67%, the viability, T/C [12] was 0.11% and the viability, T/C [13] was 113%. It also gave a viability, T/C [14] of 125%, a viability, T/C [15] of 99.8% and a viability, T/C [16] of 34.8%. It also gave a viability, T/C [17] of 0.13%, a viability, T/C [18] of 0.11% and a viability, T/C [19] of 118%. The viability, T/C [20] was 110%, the viability, T/C [21] was 94.1% and the viability, T/C [22] was 52.2%. The viability, T/C [23] was 0.11%, the viability, T/C [24] was 0.14% and the viability, T/C [25] was 86.2%. It also gave a viability, T/C [26] of 103%, a viability, T/C [27] of 80.6% and a viability, T/C [28] of 15.6%. It also gave a viability, T/C [29] of 0.8% and a viability, T/C [30] of 0.19%.
For CCN1C(C(=O)NC23CCC(C(=O)O)(CC2)CC3)C(c2cccc(Cl)c2F)C2(C(=O)Nc3cc(Cl)ccc32)C12CCCCC2 (stereo not given) + Cc1c(S(C)(=O)=O)c(-c2cc(F)cc(N3CCN(c4ccc(NS(=O)(=O)c5ccc(NC(CCN6CCC(C(=O)OCCCP(=O)(O)O)CC6)CSc6ccccc6)c(S(=O)(=O)C(F)(F)F)c5)cc4)CC3)c2)c(-c2ccc(Cl)cc2)n1C(C)C, the IC50 (second compound 0.1 µM) was over 3000 nM, the IC50 (second compound 0.316 µM) was over 3000 nM and the IC50 (second compound 1 µM) was over 3000 nM. The IC50 (second compound 3.16 µM) was over 3000 nM, the IC50 (second compound 10 µM) was over 3000 nM and the viability, T/C (second compound 0.1 µM, first compound 0.00949 µM) was 101%. For the same molecule, the viability, T/C (second compound 0.1 µM, first compound 0.03 µM) was 97.6%, the viability, T/C (second compound 0.1 µM, first compound 0.0949 µM) was 95.5% and the viability, T/C (second compound 0.1 µM, first compound 0.3 µM) was 96.3%. The viability, T/C (second compound 0.1 µM, first compound 0.949 µM) was 80.3%, the viability, T/C (second compound 0.1 µM, first compound 3 µM) was 104% and the viability, T/C (second compound 0.316 µM, first compound 0.00949 µM) was 86.3%. For the same molecule, the viability, T/C (second compound 0.316 µM, first compound 0.03 µM) was 105%, the viability, T/C (second compound 0.316 µM, first compound 0.0949 µM) was 94.8% and the viability, T/C (second compound 0.316 µM, first compound 0.3 µM) was 94.9%. It also gave a viability, T/C (second compound 0.316 µM, first compound 0.949 µM) of 88.9%, a viability, T/C (second compound 0.316 µM, first compound 3 µM) of 83.6% and a viability, T/C (second compound 1 µM, first compound 0.00949 µM) of 103%. The viability, T/C (second compound 1 µM, first compound 0.03 µM) was 82%, the viability, T/C (second compound 1 µM, first compound 0.0949 µM) was 104% and the viability, T/C (second compound 1 µM, first compound 0.3 µM) was 99.5%. For the same molecule, the viability, T/C (second compound 1 µM, first compound 0.949 µM) was 103%, the viability, T/C (second compound 1 µM, first compound 3 µM) was 95% and the viability, T/C (second compound 3.16 µM, first compound 0.00949 µM) was 88.7%. For the same molecule, the viability, T/C (second compound 3.16 µM, first compound 0.03 µM) was 103%, the viability, T/C (second compound 3.16 µM, first compound 0.0949 µM) was 96.4% and the viability, T/C (second compound 3.16 µM, first compound 0.3 µM) was 114%. It also gave a viability, T/C (second compound 3.16 µM, first compound 0.949 µM) of 68%, a viability, T/C (second compound 3.16 µM, first compound 3 µM) of 85.1% and a viability, T/C (second compound 10 µM, first compound 0.00949 µM) of 109%. For the same molecule, the viability, T/C (second compound 10 µM, first compound 0.03 µM) was 84%, the viability, T/C (second compound 10 µM, first compound 0.0949 µM) was 87.3% and the viability, T/C (second compound 10 µM, first compound 0.3 µM) was 59.1%. It also gave a viability, T/C (second compound 10 µM, first compound 0.949 µM) of 72.8% and a viability, T/C (second compound 10 µM, first compound 3 µM) of 56.3%.
Molecule CNC(C)C(=O)NC1CN(S(=O)(=O)c2cccc(S(=O)(=O)N3CCC4CCC(C(=O)NC(c5ccccc5)c5ccccc5)N4C(=O)C(NC(=O)C(C)NC)C3)c2)CCC2CCC(C(=O)NC(c3ccccc3)c3ccccc3)N2C1=O (stereo not given) + Cc1c(S(C)(=O)=O)c(-c2cc(F)cc(N3CCN(c4ccc(NS(=O)(=O)c5ccc(NC(CCN6CCC(C(=O)OCCCP(=O)(O)O)CC6)CSc6ccccc6)c(S(=O)(=O)C(F)(F)F)c5)cc4)CC3)c2)c(-c2ccc(Cl)cc2)n1C(C)C has an IC50 (second compound 0.1 µM) of over 1000 nM, an IC50 (second compound 0.316 µM) of over 1000 nM and an IC50 (second compound 1 µM) of over 1000 nM. It also gave an IC50 (second compound 3.16 µM) of over 1000 nM, an IC50 (second compound 10 µM) of over 1000 nM and a viability, T/C (second compound 0.1 µM, first compound 0.00316 µM) of 114%. For the same molecule, the viability, T/C (second compound 0.1 µM, first compound 0.01 µM) was 122%, the viability, T/C [1] was 111% and the viability, T/C [2] was 120%. The viability, T/C [3] was 99.8%, the viability, T/C [4] was 128% and the viability, T/C (second compound 0.316 µM, first compound 0.00316 µM) was 93.6%. The viability, T/C (second compound 0.316 µM, first compound 0.01 µM) was 117%, the viability, T/C [7] was 107% and the viability, T/C [8] was 102%. It also gave a viability, T/C [9] of 104%, a viability, T/C [10] of 112% and a viability, T/C (second compound 1 µM, first compound 0.00316 µM) of 115%. It also gave a viability, T/C (second compound 1 µM, first compound 0.01 µM) of 97.5%, a viability, T/C [13] of 107% and a viability, T/C [14] of 103%. For the same molecule, the viability, T/C [15] was 76.9%, the viability, T/C [16] was 91% and the viability, T/C (second compound 3.16 µM, first compound 0.00316 µM) was 102%. For the same molecule, the viability, T/C (second compound 3.16 µM, first compound 0.01 µM) was 112%, the viability, T/C [19] was 109% and the viability, T/C [20] was 96.6%. For the same molecule, the viability, T/C [21] was 85.7%, the viability, T/C [22] was 104% and the viability, T/C (second compound 10 µM, first compound 0.00316 µM) was 110%. The viability, T/C (second compound 10 µM, first compound 0.01 µM) was 104%, the viability, T/C [25] was 70.4% and the viability, T/C [26] was 87.7%. The viability, T/C [27] was 111% and the viability, T/C [28] was 98.6%.
